Measurements published in article PMC6158189, “A pharmacological probe identifies cystathionine β-synthase as a new negative regulator for ferroptosis” (Cell Death & Disease, 2018).

Legend:
[1] = test system: HEK293T cells; test: total Hcys in HEK293T cells (ELISA); format: cell-based; details: 5 or 10 μM, 12 h
Procedure: Fig. 3 The effect of CH004 on the activity of endogenous hCBS in cells. a CH004 dose-dependently elevates the levels of Hcys in HepG2 and HEK293T cells. HepG2 cells or HEK293T cells were incubated with indicated CH004 or DMSO (control) for 12 h. The amount of total Hcys in cells was measured by ELISA using Axis® Homocysteine EIA kit (IBL, AX51301) (“Materials and Methods” section). […] HepG2 cells were treated with indicated DMSO, CH004 or HA for 8 h before the staining with AzMC probe. The amount of the H2S (blue) was quantified and is shown in (c). Bars, 50 μm. Control (CTR), DMSO group (100%). A representative fluorescence image from three independent experiments is shown. Means ± SDS (n = 3). d CH004 elevates Hcys in the peripheral blood of rats. The total Hcys of the blood samples collected from the anesthetized rats at the 75 min time point (Materials and Methods) were quantified by ELISA (see above). Means ± SDS (n = 6).
HepG2 or HEK293T cells were seeded in poly-D-Lys-coated 6-well plates at a density of ∼ 5 × 10^5 cells per well for one day, treated with DMSO or various concentrations of compounds for another 12 h before the collection by scraping or trypsinization. […]

[2] = test system: rat hemorrhagic shock model; test: hemorrhagic shock rat model; format: in vivo; details: 3 mg/kg intraperitoneal
Procedure: Fig. 3 The effect of CH004 on the activity of endogenous hCBS in cells. a CH004 dose-dependently elevates the levels of Hcys in HepG2 and HEK293T cells. HepG2 cells or HEK293T cells were incubated with indicated CH004 or DMSO (control) for 12 h. The amount of total Hcys in cells was measured by ELISA using Axis® Homocysteine EIA kit (IBL, AX51301) (“Materials and Methods” section). […] HepG2 cells were treated with indicated DMSO, CH004 or HA for 8 h before the staining with AzMC probe. The amount of the H2S (blue) was quantified and is shown in (c). Bars, 50 μm. Control (CTR), DMSO group (100%). A representative fluorescence image from three independent experiments is shown. […] The total Hcys of the blood samples collected from the anesthetized rats at the 75 min time point (Materials and Methods) were quantified by ELISA (see above). […]
Figure S10. […] The hemorrhagic shock model was constructed by blood withdrawing (BW) from the carotid artery of anesthetized male Sprague-Dawley rats (280-320 g), and the mean arterial blood pressure (MAP) was monitored by an MP30B-CE pressure transducer (BIOPAC, Santa Barbara, CA, USA). […] Then, 15 min later, CH004 (3 mg/kg), PAG (50 mg/kg) or vehicle (2% DMSO in saline) was intraperitoneally administered to the rats, and the MAP was monitored continuously for another 45 min. MAP was continually recorded during the experiments. […]

[3] = test system: HepG2 cells; test: cell death, FITC Annexin V kit, flow cytometry; format: cell-based, human; details: 40 μM, 12 h
Procedure: Fig. 4 CH004 arrests the cell cycle at the S phase. a CH004 reduces the cell viability of HEK293T and HepG2 cells. HEK293T or HepG2 cells were treated with indicated concentrations of CH004 for 24 h before the cell number was analyzed using the CellTiter96® Aqueous One Solution Cell Proliferation Assay (Promega, Materials and Methods). The means at each concentration of one representative experiment are shown as percentages of DMSO (control, 100%). Means ± SDs (n = 3). b Overexpression of hCBS or knock-down of hCBS counteracts the growth inhibition exerted by CH004 in HEK293T cells. Indicated HEK293T stable cell lines were treated with the CH004 or DMSO for 24 h. Then, the cell viability was quantified with the CellTiter 96® Aqueous One Solution Cell Proliferation Assay under the standard protocol (Promega). […] The efficacy for CBS overexpression and knock-down in HEK293T cells was determined by Western blotting using an anti-CBS antibody (3E1, 1:2000; Abnova). c CH004 induces cell death in HEK293T and HepG2 cells. […] HEK293T cells were incubated with indicated compounds for 12 h, and the DNA content was quantified with propidium iodide to analyze the cell cycle distribution by flow cytometry (e). The cell cycle distributions for HEK293T-shNT and HEK293T-shCBS cells were accordingly analyzed and are shown in f. […]

[4] = test system: HEK293T cells expressing CBS Q222A mutant; test: cell viability of HEK293T stable line expressing CBS Q222A; format: cell-based; details: 10 µM, 24 h
Procedure: Figure S15. The mode of actions for CH004 in cells. […] Indicated HEK293T stable cell lines were treated with CH004 at a concentration of 10 µM for 24 h, and the cell viability was then measured using the CellTiter96® Aqueous One Solution Cell Proliferation Assay (Promega). Means ± SDs (n=3). (B-C) CH004 or erastin triggers ferroptosis in mouse embryonic fibroblasts (MEF). WT MEF cells were treated with CH004 or erastin at indicated concentrations in the presence or the absence of 500 µM DFO for 24 h before measuring the lipid ROS with 2 μM BODIPY® 581/591 C11 (Materials and methods). […] Erastin at micromolar concentrations were incubated with HepG2 cells for 24 h before measuring the lipid ROS (see above and Materials and methods). […] Means ± SDs (n=3). […] CH004 or erastin at a concentration of 20 µM was incubated with HepG2 cells for 48 h or 72 h in the presence or the absence of 100 µM DFO. The cell viability was accordingly quantified using the CellTiter96® Aqueous One Solution Cell Proliferation Assay (Promega) and the results were shown as percentages of DMSO (control, 100%). Means ± SDs (n=3). All the experiments were independently repeated at least twice and one representative result is present. Table S1 The inhibitory effects of CH004 on purified hCBS, hCSE and hDDC.

Cn1nc(Cc2ccccc2)nc2c(=O)n(C)c(=O)nc1-2 [CH004, 3-benzyl-1,6-dimethylpyrimido[5,4-e][1,2,4]triazine-5,7(1H,6H)-dione] was tested, and the “increase of Hcys” value [1] was ~ 2 fold, the “increase of the level of Hcys in blood” value ([2]; 75 min time point) was ~ 2 fold and the “effect on mean arterial pressure (MAP)” value ([2]; indicator for in vivo CSE inhibition) was “does not affect”. The “increase in cell death” value [3] was ~ 80% and the “cell death triggered by CH004 in cells expressing CH004-insensitive CBS Q222A” value [4] was “partially rescues”.
